Results reported in patent publication US12606568B2, “SMARCA degraders and uses thereof” (Kymera Therapeutics, Inc., priority 2020, dated 2026).

Columns and labels:
Format in all cases: cell-based
SMARCA4 = target: T1, SMARCA4 (Homo sapiens, UniProt P51532); experiment: SMARCA4 Western blot MV4-11 degradation; details: for SMARCA4 MSD MV411 degradation 24 h: average Dmax % / DC50: MV4-11 cells; for DC50 / Dmax: 24 h; for DC50: read-out: SMARCA4 MSD MV411 degradation 24 h: Mean external-Abs DC50; for Dmax: MV4-11, MV4-11 cells, read-out: SMARCA4 MSD MV411 degradation 24 h: average Dmax %
T1 construct: SMARCA2 and SMARCA4 protein degradation in MV4-11 cells; endogenous in cells; host or cells: MV4-11
T1 sequence (P51532 whole entry): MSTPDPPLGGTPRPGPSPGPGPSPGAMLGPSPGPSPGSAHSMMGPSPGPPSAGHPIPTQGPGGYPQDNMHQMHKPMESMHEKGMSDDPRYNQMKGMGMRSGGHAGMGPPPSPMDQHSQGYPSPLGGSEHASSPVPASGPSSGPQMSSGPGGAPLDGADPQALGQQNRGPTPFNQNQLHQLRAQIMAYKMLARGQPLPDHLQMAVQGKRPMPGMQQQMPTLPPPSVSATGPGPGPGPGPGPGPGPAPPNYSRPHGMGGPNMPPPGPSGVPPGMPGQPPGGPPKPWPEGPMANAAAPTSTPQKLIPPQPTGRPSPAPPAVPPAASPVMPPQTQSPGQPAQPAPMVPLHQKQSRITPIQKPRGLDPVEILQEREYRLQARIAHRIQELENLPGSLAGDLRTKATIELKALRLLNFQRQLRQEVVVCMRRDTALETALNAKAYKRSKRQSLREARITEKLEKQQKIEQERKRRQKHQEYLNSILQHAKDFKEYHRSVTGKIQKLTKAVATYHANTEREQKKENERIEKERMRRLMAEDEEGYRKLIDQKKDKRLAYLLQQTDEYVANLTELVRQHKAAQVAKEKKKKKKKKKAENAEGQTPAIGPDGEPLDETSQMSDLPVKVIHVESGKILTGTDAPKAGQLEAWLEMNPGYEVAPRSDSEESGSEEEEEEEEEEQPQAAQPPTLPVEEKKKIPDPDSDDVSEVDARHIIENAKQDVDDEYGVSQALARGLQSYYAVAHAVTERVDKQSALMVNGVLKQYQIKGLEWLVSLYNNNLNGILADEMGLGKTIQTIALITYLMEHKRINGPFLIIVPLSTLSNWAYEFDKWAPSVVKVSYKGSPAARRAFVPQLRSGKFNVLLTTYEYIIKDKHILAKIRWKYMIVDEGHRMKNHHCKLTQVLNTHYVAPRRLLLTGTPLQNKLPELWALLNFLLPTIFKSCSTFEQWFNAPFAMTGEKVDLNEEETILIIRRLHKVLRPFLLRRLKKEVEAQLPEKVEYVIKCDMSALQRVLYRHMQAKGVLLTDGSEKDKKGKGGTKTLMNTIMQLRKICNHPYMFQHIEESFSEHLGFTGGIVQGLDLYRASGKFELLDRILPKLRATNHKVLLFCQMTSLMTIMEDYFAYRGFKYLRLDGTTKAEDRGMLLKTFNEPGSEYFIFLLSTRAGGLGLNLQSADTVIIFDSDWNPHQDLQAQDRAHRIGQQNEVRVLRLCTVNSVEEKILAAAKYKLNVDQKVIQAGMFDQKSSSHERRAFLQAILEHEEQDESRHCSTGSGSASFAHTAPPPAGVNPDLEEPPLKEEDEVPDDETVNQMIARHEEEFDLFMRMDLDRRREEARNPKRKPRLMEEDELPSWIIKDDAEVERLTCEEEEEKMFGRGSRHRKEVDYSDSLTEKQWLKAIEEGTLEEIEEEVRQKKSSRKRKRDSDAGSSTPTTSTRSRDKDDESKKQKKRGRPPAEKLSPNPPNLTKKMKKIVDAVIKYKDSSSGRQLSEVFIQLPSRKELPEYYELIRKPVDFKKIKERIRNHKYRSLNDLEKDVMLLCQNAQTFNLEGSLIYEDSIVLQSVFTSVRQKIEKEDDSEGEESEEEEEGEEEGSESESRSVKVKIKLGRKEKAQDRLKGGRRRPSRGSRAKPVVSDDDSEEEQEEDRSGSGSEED

SMARCA2 [1] = target: T2, SMARCA2 (Homo sapiens, UniProt P51531); experiment: MSD SMARCA2 degradation in A549 cell line; design: endogenous in cells; details: for SMARCA2 MSD A549 degradation 24 h: Average Dmax % / DC50: A549 cells; for DC50 / Dmax: 24 h; for DC50: read-out: SMARCA2 MSD A549 degradation 24 h: Average external-Abs DC50; for Dmax: A549, A549 cells
T2 sequence (P51531 whole entry): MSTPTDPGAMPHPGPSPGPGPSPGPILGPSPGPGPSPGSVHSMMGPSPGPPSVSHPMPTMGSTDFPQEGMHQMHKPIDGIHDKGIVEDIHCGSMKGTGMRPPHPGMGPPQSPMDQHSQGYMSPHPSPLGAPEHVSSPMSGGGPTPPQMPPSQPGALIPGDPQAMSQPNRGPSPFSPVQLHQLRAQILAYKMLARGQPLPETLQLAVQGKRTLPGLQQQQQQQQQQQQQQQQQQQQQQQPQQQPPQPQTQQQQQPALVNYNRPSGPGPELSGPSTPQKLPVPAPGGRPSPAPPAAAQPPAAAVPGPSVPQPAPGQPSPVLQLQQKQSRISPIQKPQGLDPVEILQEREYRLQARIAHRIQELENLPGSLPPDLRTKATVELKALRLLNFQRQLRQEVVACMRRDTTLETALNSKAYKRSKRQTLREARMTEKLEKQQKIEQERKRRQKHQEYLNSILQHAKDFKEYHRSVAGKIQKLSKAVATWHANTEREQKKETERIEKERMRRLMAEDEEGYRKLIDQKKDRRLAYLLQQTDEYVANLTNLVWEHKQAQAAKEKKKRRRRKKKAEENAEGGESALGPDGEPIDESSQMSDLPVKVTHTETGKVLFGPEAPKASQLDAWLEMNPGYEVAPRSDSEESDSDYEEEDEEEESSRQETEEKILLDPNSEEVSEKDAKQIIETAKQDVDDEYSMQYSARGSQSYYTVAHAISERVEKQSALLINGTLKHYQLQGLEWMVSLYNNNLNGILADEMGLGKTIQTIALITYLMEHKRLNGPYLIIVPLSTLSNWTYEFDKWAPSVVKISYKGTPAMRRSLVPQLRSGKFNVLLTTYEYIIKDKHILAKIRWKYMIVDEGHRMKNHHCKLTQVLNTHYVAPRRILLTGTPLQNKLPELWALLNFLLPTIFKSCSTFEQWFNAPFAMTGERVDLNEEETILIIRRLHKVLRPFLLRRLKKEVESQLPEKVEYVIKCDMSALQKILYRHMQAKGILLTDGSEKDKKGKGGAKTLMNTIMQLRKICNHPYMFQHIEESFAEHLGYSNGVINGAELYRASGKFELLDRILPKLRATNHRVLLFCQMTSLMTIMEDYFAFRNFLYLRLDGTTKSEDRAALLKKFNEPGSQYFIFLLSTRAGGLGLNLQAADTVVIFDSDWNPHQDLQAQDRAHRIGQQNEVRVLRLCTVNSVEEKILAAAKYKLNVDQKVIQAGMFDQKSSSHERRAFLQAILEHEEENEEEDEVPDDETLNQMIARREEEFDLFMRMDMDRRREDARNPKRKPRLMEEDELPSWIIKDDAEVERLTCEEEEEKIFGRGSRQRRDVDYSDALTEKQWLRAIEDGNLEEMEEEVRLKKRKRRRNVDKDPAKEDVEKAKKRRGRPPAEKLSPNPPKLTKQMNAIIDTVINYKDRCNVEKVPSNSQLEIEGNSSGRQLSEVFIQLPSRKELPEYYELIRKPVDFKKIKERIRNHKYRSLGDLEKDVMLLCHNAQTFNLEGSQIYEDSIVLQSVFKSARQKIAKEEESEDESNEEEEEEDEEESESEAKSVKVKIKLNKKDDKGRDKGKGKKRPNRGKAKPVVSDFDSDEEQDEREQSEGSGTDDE
Procedure, shortened: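 A549 cells treated 24 h with compound, 3-fold series 1000 nM down to 0.152 nM plus DMSO. RIPA lysates captured on MSD plates, probed with rabbit anti-SMARCA2/BRM (1 µg/ml) then SULFO-TAG anti-rabbit, electrochemiluminescence read. DC50 and 24 h Dmax reported as letter bins.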

SMARCA2 [2] = target: T2, SMARCA2; experiment: SMARCA2 Western blot MV4-11 degradation; design: SMARCA2 and SMARCA4 protein degradation in MV4-11 cells; endogenous in cells; host or cells: MV4-11; details: for SMARCA2 MSD MV411 degradation 24 h: average Dmax % / DC50: MV4-11 cells; for DC50 / Dmax: 24 h; for DC50: read-out: SMARCA2 MSD MV411 degradation 24 h: Mean external-Abs DC50; for Dmax: MV4-11, MV4-11 cells, read-out: SMARCA2 MSD MV411 degradation 24 h: average Dmax %

Row | Compound | SMARCA4 MSD MV411 degradation 24 h: average Dmax % (SMARCA4) | DC50 (SMARCA4) [nM] | SMARCA2 MSD A549 degradation 24 h: Average Dmax % (SMARCA2 [1]) | SMARCA2 MSD MV411 degradation 24 h: average Dmax % (SMARCA2 [2]) | DC50 (SMARCA2 [2]) [nM] | DC50 (SMARCA2 [1]) [nM] | Dmax (SMARCA2 [1]) [%] | Dmax (SMARCA2 [2]) [%] | Dmax (SMARCA4) [%]
1 | Cc1n[nH]c(C)c1-c1ccc(CNC(=O)[C@@H]2C[C@@H](O)CN2C(=O)[C@@H](NC(=O)[C@H]2CC3(C2)C[C@H](N2CCC(c4cnc(N5C6CCC5CN(c5cc(-c7ccccc7O)nnc5N)C6)nc4)CC2)C3)C(C)(C)C)cc1 (stereo partly drawn) [I-32, (2S,4R)-1-((2S)-2-(6-(4-(2-(3-(3-amino-6-(2-hydroxyphenyl)pyridazin-4-yl)-3,8-diazabicyclo[3.2.1]octan-8-yl)pyrimidin-5-yl)piperidin-1-yl)spiro[3.3]heptane-2-carboxamido)-3,3-dimethylbutanoyl)-N-(4-(3,5-dimethyl-1H-pyrazol-4-yl)benzyl)-4-hydroxypyrrolidine-2-carboxamide] | D (D (<50% degradation)) | > 1000 | D (D (<50% degradation)) | D (D (<50% degradation)) | 100 to 500 |  |  |  | 
2 | Cc1ncsc1-c1ccc(CNC(=O)[C@@H]2C[C@@H](O)CN2C(=O)[C@@H](NC(=O)[C@H]2CC3(C2)C[C@H](N2CCC(Oc4ccc(N5C6CCC5CN(c5cc(-c7ccccc7O)nnc5N)C6)cn4)CC2)C3)C(C)(C)C)cc1 (stereo partly shown) [I-40] | A (A (>90% degradation)) | > 1000 | B (B (>70-90% o degradation)) | B (B (>70-90% degradation)) | < 100 | > 1000 |  |  | 
3 | Cc1ncsc1-c1ccc([C@H](C)NC(=O)[C@@H]2C[C@@H](O)CN2C(=O)[C@@H](NC(=O)[C@H]2CC3(C2)C[C@H](N2CCC(c4ccc(N5C6CCC5CN(c5cc(-c7ccccc7O)nnc5N)C6)cc4)CC2)C3)C(C)(C)C)cn1 (single isomer, unassigned) [I-5] | D (D (<50% degradation)) | > 1000 |  |  | 100 to 500 | > 1000 | < 50 | < 50 | 
4 | Cc1ncsc1-c1ccc(CNC(=O)[C@@H]2C[C@@H](O)CN2C(=O)[C@@H](NC(=O)CN(C)Cc2cnc(N3C4CCC3CN(c3cc(-c5ccccc5O)nnc3N)C4)nc2)C(C)(C)C)cc1 [I-37, (2S,4R)-1-((2S)-2-(2-(((2-(3-(3-amino-6-(2-hydroxyphenyl)pyridazin-4-yl)-3,8-diazabicyclo[3.2.1]octan-8-yl)pyrimidin-5-yl)methyl)(methyl)amino)acetamido)-3,3-dimethylbutanoyl)-4-hydroxy-N-(4-(4-methylthiazol-5-yl)benzyl)pyrrolidine-2-carboxamide] |  | < 100 |  |  | < 100 | 501 to 1000 | > 90 | > 90 | > 90
5 | Cc1nccn1-c1ccc(CNC(=O)[C@@H]2C[C@@H](O)CN2C(=O)[C@@H](NC(=O)[C@H]2CC3(C2)C[C@H](N2CCC(c4cnc(N5C6CCC5CN(c5cc(-c7ccccc7O)nnc5N)C6)nc4)CC2)C3)C(C)(C)C)cc1 (stereo partly drawn) [I-33, (2S,4R)-1-((2S)-2-(6-(4-(2-(3-(3-amino-6-(2-hydroxyphenyl)pyridazin-4-yl)-3,8-diazabicyclo[3.2.1]octan-8-yl)pyrimidin-5-yl)piperidin-1-yl)spiro[3.3]heptane-2-carboxamido)-3,3-dimethylbutanoyl)-4-hydroxy-N-(4-(2-methyl-1H-imidazol-1-yl)benzyl)pyrrolidine-2-carboxamide] |  | > 1000 |  |  | 100 to 500 |  | < 50 | < 50 | < 50
6 | Cc1ncsc1-c1ccc(CNC(=O)[C@@H]2C[C@@H](O)CN2C(=O)C(c2cc(N3CCC(CCN4CCC(c5cnc(N6C7CCC6CN(c6cc(-c8ccccc8O)nnc6N)C7)nc5)CC4)CC3)no2)C(C)C)cc1 (stereo partly drawn) [I-61, (2S,4R)-1-(2-(3-(4-(2-(4-(2-(3-(3-amino-6-(2-hydroxyphenyl)pyridazin-4-yl)-3,8-diazabicyclo[3.2.1]octan-8-yl)pyrimidin-5-yl)piperidin-1-yl)ethyl)piperidin-1-yl)isoxazol-5-yl)-3-methylbutanoyl)-4-hydroxy-N-(4-(4-methylthiazol-5-yl)benzyl)pyrrolidine-2-carboxamide] |  | < 100 |  |  | < 100 | < 100 | > 90 | > 90 | > 90
7 | Cc1ncsc1-c1ccc(CNC(=O)[C@@H]2C[C@@H](O)CN2C(=O)[C@@H](NC(=O)C2CC3(C2)CN(C2CCC(c4cnc(N5C6CCC5CN(c5cc(-c7ccccc7O)nnc5N)C6)nc4)CC2)C3)C(C)(C)C)cc1 (stereo partly drawn) [I-7, 2-(4-(2-(3-(3-amino-6-(2-hydroxyphenyl)pyridazin-4-yl)-3,8-diazabicyclo[3.2.1]octan-8-yl)pyrimidin-5-yl)cyclohexyl)-N—((S)-1-((2S,4R)-4-hydroxy-2-((4-(4-methylthiazol-5-yl)benzyl)carbamoyl)pyrrolidin-1-yl)-3,3-dimethyl-1-oxobutan-2-yl)-2-azaspiro[3.3]heptane-6-carboxamide] |  | > 1000 |  |  | < 100 | 501 to 1000 | 70 to 90 | 70 to 90 | < 50
8 | Cc1ncsc1-c1ccc(CNC(=O)[C@@H]2C[C@@H](O)CN2C(=O)[C@@H](NC(=O)[C@H]2CC3(CC[C@H](N4CCC(c5cnc(N6C7CCC6CN(c6cc(-c8ccccc8O)nnc6N)C7)nc5)CC4)CC3)C2)C(C)(C)C)cc1 (stereo partly drawn) [I-14, (2S,4R)-1-((2S)-2-(7-(4-(2-(3-(3-amino-6-(2-hydroxyphenyl)pyridazin-4-yl)-3,8-diazabicyclo[3.2.1]octan-8-yl)pyrimidin-5-yl)piperidin-1-yl)spiro[3.5]nonane-2-carboxamido)-3,3-dimethylbutanoyl)-4-hydroxy-N-(4-(4-methylthiazol-5-yl)benzyl)pyrrolidine-2-carboxamide] | B (B (>70-90% degradation)) | > 1000 | B (B (>70-90% o degradation)) | B (B (>70-90% degradation)) | < 100 | < 100 |  |  | 
